Columns and labels:
Assay type in all cases: physicochemical
Hygroscopicity test = conditions: for Hygroscopicity: 75% RH and 25° C. for 24 h, by weighing; for hygroscopicity (in words): crystal forms compared with amorphous form
Description: (§1) The amorphous form of the compound of formula I prepared in Preparation Example, the crystal form A of the compound of formula I prepared in Example 1, the crystal form B of the compound of formula I prepared in Example 32, the crystal form C of the compound of formula I prepared in Example 48, the crystal form D of the compound of formula I prepared in Example 51, and the crystal form E of the compound of formula I prepared in Example 54 were placed in an environment of 75% RH and 25° C. for 24 h and then weighed to calculate the hygroscopicity, respectively.

[1] = Fluidity test (angle of repose); conditions: for fluidity / angle of repose (in words): crystal forms compared with amorphous form
Description: as §1, with “measured for angle of repose, and the specific results are shown” for “placed”, “Table 8 below: […]” for “an environment of 75% RH and 25° C. for 24 h and then weighed to calculate the hygroscopicity, respectively.”

[2] = Granularity experiment (D50, D90); conditions: for D50 / D90: granularity
Description: as §1, with “measured for granularity, and the specific results are shown” for “placed”, “Table 7 below: […]” for “an environment of 75% RH and 25° C. for 24 h and then weighed to calculate the hygroscopicity, respectively.”

[3] = Stability experiment: purity after 10 days of humidity, heat or light; conditions: for stability compared with the amorphous form: conclusion from Table 6
Description: High-performance liquid chromatography (HPLC) test conditions involved in the present disclosure: the model of the liquid chromatograph was Agilent 1260; the chromatographic column was Waters XBridge C18 150*4.6 mm 3.5 μm; the detection wavelength was 234 nm; and the column temperature was 25° C.
as §1, with “75% RH, 92.5% RH, 40° C., 60° C. and light for 10 days respectively, and the X-ray powder diffraction pattern and purity” for “an environment”, “each crystal form were measured.” for “75% RH and 25° C. for 24 h and then weighed to calculate the hygroscopicity, respectively.”

Hygroscopicity (Hygroscopicity test) [%]	angle of repose ([1]; measurement 1) [°]	angle of repose ([1]; measurement 2) [°]	angle of repose ([1]; measurement 3) [°]	D50 [2] [μm]	D90 [2] [μm]	purity ([3]; 40° C. for 10 days)	purity ([3]; 60° C. for 10 days)	purity ([3]; 75% RH for 10 days)	purity ([3]; 92.5% RH for 10 days)	purity ([3]; Day 0)	purity ([3]; Light for 10 days)	stability compared with the amorphous form [3]	D50 relative to the crystal forms ([2]; amorphous form D50 as share of crystal forms A-E) [%]	D90 relative to the crystal forms ([2]; amorphous form D90 as share of crystal forms A-E) [%]	granularity (in words) ([2]; compared with crystal forms A-E)	D50 ([2]; listed as amorphous form) [μm]	D90 ([2]; listed as amorphous form) [μm]	Compound	hygroscopicity (in words) (Hygroscopicity test)	fluidity / angle of repose (in words) [1]
0.20	35.5	36.1	35.9	20.98	69.99	99.53	99.52	99.56	99.54	99.56	99.55	better stability	–	–	–	–	–	C=CC(=O)Nc1cc(N2CCN(CC)C3(CC3)C2)ccc1Nc1cc(N(C)C(=O)Nc2c(Cl)c(OC)cc(OC)c2Cl)ncn1 [Crystal form E, N-(2-((6-(3-(2,6-dichloro-3,5-dimethoxyphenyl)-1-methylureido)pyrimidin-4-yl)amino)-5-(4-ethyl-4,7-diazaspiro[2.5]octan-7-yl)phenyl)acrylamide]	significantly better than the amorphous form in terms of hygroscopicity	significantly better than the amorphous form in terms of fluidity
0.52	43.3	42.6	41.9	2.68	22.82	94.67	94.73	94.93	94.83	95.33	94.97	–	≤ 13	≤ 33	remarkably small granularity	2.68	22.82	C=CC(=O)Nc1cc(N2CCN(CC)C3(CC3)C2)ccc1Nc1cc(N(C)C(=O)Nc2c(Cl)c(OC)cc(OC)c2Cl)ncn1 [Amorphous form, N-(2-((6-(3-(2,6-dichloro-3,5-dimethoxyphenyl)-1-methylureido)pyrimidin-4-yl)amino)-5-(4-ethyl-4,7-diazaspiro[2.5]octan-7-yl)phenyl)acrylamide]	significantly greater	significantly larger
0.12	34.6	35.7	35.2	21.98	71.56	99.69	99.72	99.75	99.73	99.75	99.73	better stability	–	–	–	–	–	C=CC(=O)Nc1cc(N2CCN(CC)C3(CC3)C2)ccc1Nc1cc(N(C)C(=O)Nc2c(Cl)c(OC)cc(OC)c2Cl)ncn1 [Crystal form B, N-(2-((6-(3-(2,6-dichloro-3,5-dimethoxyphenyl)-1-methylureido)pyrimidin-4-yl)amino)-5-(4-ethyl-4,7-diazaspiro[2.5]octan-7-yl)phenyl)acrylamide]	significantly better than the amorphous form in terms of hygroscopicity	significantly better than the amorphous form in terms of fluidity
0.16	35.6	36.2	35.1	20.98	70.49	99.52	99.49	99.54	99.54	99.55	99.53	better stability	–	–	–	–	–	C=CC(=O)Nc1cc(N2CCN(CC)C3(CC3)C2)ccc1Nc1cc(N(C)C(=O)Nc2c(Cl)c(OC)cc(OC)c2Cl)ncn1 [Crystal form D, N-(2-((6-(3-(2,6-dichloro-3,5-dimethoxyphenyl)-1-methylureido)pyrimidin-4-yl)amino)-5-(4-ethyl-4,7-diazaspiro[2.5]octan-7-yl)phenyl)acrylamide]	significantly better than the amorphous form in terms of hygroscopicity	significantly better than the amorphous form in terms of fluidity
0.10	33.4	31.8	33.7	22.37	72.86	99.83	99.81	99.85	99.83	99.87	99.87	better stability	–	–	–	–	–	C=CC(=O)Nc1cc(N2CCN(CC)C3(CC3)C2)ccc1Nc1cc(N(C)C(=O)Nc2c(Cl)c(OC)cc(OC)c2Cl)ncn1 [Crystal form A, N-(2-((6-(3-(2,6-dichloro-3,5-dimethoxyphenyl)-1-methylureido)pyrimidin-4-yl)amino)-5-(4-ethyl-4,7-diazaspiro[2.5]octan-7-yl)phenyl)acrylamide]	significantly better than the amorphous form in terms of hygroscopicity	significantly better than the amorphous form in terms of fluidity
0.15	34.2	35.4	33.9	21.77	70.88	99.66	99.66	99.71	99.68	99.72	99.70	better stability	–	–	–	–	–	C=CC(=O)Nc1cc(N2CCN(CC)C3(CC3)C2)ccc1Nc1cc(N(C)C(=O)Nc2c(Cl)c(OC)cc(OC)c2Cl)ncn1 [Crystal form C, N-(2-((6-(3-(2,6-dichloro-3,5-dimethoxyphenyl)-1-methylureido)pyrimidin-4-yl)amino)-5-(4-ethyl-4,7-diazaspiro[2.5]octan-7-yl)phenyl)acrylamide]	significantly better than the amorphous form in terms of hygroscopicity	significantly better than the amorphous form in terms of fluidity

— patent US20240287045A1, “CRYSTAL FORM OF PYRIMIDINE DERIVATIVE AND PREPARATION METHOD THEREFOR” (ZHEJIANG HISUN PHARMACEUTICAL CO., LTD., priority 2021, published 2024)
